Reference: patent US8530507B2, “Use of levo-ornidazole in the preparation of anti-anaerobic bacteria infection drugs” (priority 2005, dated 2013)

Experiments:
mice [1] = experiment: Hypnotic effect of intravenous injection in mice (righting reflex); format: in vivo; settings: mice, within 30 minutes
Description: White mice, half males and half females, fasted for eight hours. The disappearance of righting reflex in mice was observed. The number of animals who lost their righting reflex was recorded in 30 minutes after drug administration.

[2] = In vivo pharmacokinetics in Beagle dogs
Description: The clinical dose of ornidazole is 500 mg for human. By calculating, based on body surface area, the pharmacokinetic experimental dose in Beagle dogs was 13 mg/kg in vivo. Six adult beagle dogs (half males and half females, body weight of 9˜11.5 kg) were randomly divided into three groups. According to crossover design, intravenous injection of L-, D-, and racemic ornidazole were administered in turn to each dog every other week (with one week washout period in between). 2 ml of blood was collected from the vein located at the forelimb of the dogs before drug administration and 0.083, 0.5, 1.0, 2.0, 4.0, 6.0, 8.0, 12.0, 16.0, 24.0 hours after drug administration, which was then placed in the heparinized tube, followed by centrifugation to obtain the plasma. Plasma concentration of drug was determined by HPLC. Pharmacokinetics parameters were estimated using the non-compartmental models. The corresponding pharmacokinetics parameters were obtained by BAPP2.0 using the data of plasma concentration of blood with time obtained above.

Beagle dogs = settings: dog, in vivo, iv, 200 mg/kg
Text: 2. Toxicity Test in Beagle Dogs (Non-Rodent) After Intravenous Administration of L-ornidazole for Two Weeks
Beagle dogs, 4 dogs in each group with half females and half males, were divided into L-, D-, and racemic ornidazole groups.

mice [3] = experiment: Effects on spontaneous activities in mice; format: in vivo; settings: for spontaneous activity compared with the vehicle control group: recorded at 0.5, 1, 2, 3 and 4 hours
Description: Chlorpromazine was administered at dose of […] in the positive control group, and the same volume of propylene glycol containing 0.9% sodium chloride injection was administered in the vehicle control group. Spontaneous activity was recorded at 0.5, 1, 2, 3 and 4 hours after drug administration. The injection volume was 0.2 ml/10 g and the administration rate was 0.2 ml/10 sec.

mice [4] = experiment: Effect on the hypnotic effect induced by sodium thiopental in mice; settings: 40 mg/kg sodium thiopental i.p. 30 minutes later
Description: The same volume of 0.9% sodium chloride injection containing propylene glycol was administered in the vehicle control group. 30 minute after drug administration, 40 mg/kg of sodium thiopental was administered to mice by intraperitoneal injection. The time for the loss of righting reflex and the time for the recovery were recorded. The injection volume was 0.2 ml/10 g, the administration rate was 0.2 ml/10 sec.

mice [5] = experiment: Effect on the coordination of balancing in mice; format: in vivo; settings: intravenous injection
Description: Experiments were conducted in 9 administration groups, L-, D- and racemic ornidazole were administered to them at doses of 40, 80 and 160 mg/kg. Positive control group received chlorpromazine at a dose of 3 mg/kg.

[6] = beagle dogs, individual intravenous dose 13 mg/kg, plasma

## Cc1ncc([N+](=O)[O-])n1C[C@@H](O)CCl [D-ornidazole]
Mice [1]; individual dose of 160 mg/kg intravenous
  number of mice with loss in righting reflex: 10 mice
Mice [1]; individual dose of 40 or 80 mg/kg intravenous
  loss in righting reflex: No loss in righting reflex
[2]; [6]
  AUC0-t (area under curve): 66.57 ± 10.51 µg·h/mL
  Cl (clearance): 1.59 ± 0.28 L/h
  MRT (mean retention time of drugs): 8.74 ± 3.30 h
  Vβ (elimination volume of distribution): 13.59 ± 4.99 L
[2]; dog, in vivo, iv
  in vivo transformation of enantiomers between L- and D-ornidazole: not occurred
[2]; dog, in vivo, iv, 13 mg/kg
  t1/2 (half life): 6.06 ± 2.29 h
Beagle dogs
  food intake and body weight: significantly inhibited
  histological examination of organs: significant pathological changes were not observed
  manifestations (toxicity and side effects): drooling, vomiting, myasthenia of limbs, astasia, hyperspasmia
  number of Purkinje cells in cerebellum (histological examination): significantly reduced
Mice [3]; 40 mg/kg intravenous
  recovery of spontaneous activity: gradually become normal after 3 hours
  spontaneous activity compared with the vehicle control group: reduced significantly at 0.5, 1 and 2 hours
Mice [3]; 80 mg/kg intravenous
  recovery of spontaneous activity: not recovered in 4 hours
  spontaneous activity compared with the vehicle control group: reduced significantly at 0.5, 1, 2, 3 and 4 hours
Mice [3]; 160 mg/kg intravenous
  recovery of spontaneous activity: not recovered in 4 hours
  spontaneous activity compared with the vehicle control group: reduced significantly at 0.5, 1, 2, 3 and 4 hours
Mice [4]; 40 mg/kg intravenous
  duration of sleeping induced by sodium thiopental, compared with the vehicle control group: significantly extended
  sleep latency induced by sodium thiopental, compared with the vehicle control group: significantly reduced
Mice [4]; 80 mg/kg intravenous
  duration of sleeping induced by sodium thiopental, compared with the vehicle control group: significantly extended
  sleep latency induced by sodium thiopental, compared with the vehicle control group: significantly reduced
Mice [5]; 160 mg/kg
  effect on the coordination and balance (number of falling animals): significant effect
Mice [5]; doses of 40 and 80 mg/kg
  effect on the coordination and balance, compared with the vehicle control group: no significant effect
